Assay results taken from publication PMC11027065 (Analytical chemistry, 2020).

Molecular target: T1, insulin-regulated aminopeptidase (IRAP, EC 3.4.11.3) (Rattus norvegicus, UniProt P97629)
T1 sequence (P97629 1-1025): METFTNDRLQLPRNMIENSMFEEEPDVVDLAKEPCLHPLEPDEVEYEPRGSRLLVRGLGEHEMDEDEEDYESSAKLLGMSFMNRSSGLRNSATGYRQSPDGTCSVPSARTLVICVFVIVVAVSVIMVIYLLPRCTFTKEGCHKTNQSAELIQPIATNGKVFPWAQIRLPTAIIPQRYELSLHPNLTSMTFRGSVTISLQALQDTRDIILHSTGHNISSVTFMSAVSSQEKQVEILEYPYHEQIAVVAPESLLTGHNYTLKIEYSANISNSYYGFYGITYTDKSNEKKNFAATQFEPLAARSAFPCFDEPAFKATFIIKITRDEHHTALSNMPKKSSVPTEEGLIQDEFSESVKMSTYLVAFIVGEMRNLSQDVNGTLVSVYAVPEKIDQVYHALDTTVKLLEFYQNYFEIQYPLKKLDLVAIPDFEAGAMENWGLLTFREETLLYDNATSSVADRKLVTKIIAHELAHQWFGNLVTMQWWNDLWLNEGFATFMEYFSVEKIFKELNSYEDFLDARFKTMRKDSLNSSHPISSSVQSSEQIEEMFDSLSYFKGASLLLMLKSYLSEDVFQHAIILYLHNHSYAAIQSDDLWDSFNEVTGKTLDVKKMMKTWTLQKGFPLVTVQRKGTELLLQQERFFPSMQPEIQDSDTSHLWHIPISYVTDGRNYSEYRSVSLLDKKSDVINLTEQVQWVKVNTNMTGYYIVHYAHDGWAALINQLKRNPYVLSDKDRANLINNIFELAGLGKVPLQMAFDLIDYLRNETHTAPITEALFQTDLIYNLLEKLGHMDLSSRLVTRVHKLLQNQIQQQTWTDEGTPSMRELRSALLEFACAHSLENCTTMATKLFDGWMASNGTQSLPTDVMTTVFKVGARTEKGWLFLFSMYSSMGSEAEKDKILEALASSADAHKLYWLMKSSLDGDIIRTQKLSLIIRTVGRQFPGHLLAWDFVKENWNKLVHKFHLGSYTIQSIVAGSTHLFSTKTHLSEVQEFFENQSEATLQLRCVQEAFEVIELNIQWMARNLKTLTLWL
Test: EOP-MD probe with cLC-MS2: effect of HFI-419 on LE hydrolysis in vivo
Conditions: 50 μM HFI-419; GGFL detected without inhibitor; data not shown

## CCOC(=O)C1=C(NC(C)=O)Oc2cc(O)ccc2C1c1cccnc1 (stereo not shown) [HFI-419]
  product GGFL in dialysate during infusion of inhibitor: undetected
